The assay has as its system neuron. The experiment in a line: quantification of 15R-LXA4, RvE1, RvD1 in primary cells (LC-MS/MS). The settings on record: replicates. It is filed as cell-based, C57BL/6 mice. Further details: unit not given here. The protocol:
Lipid mediators metabololipidomics were performed according to previously described procedures with minor modifications[4],[30]. To confirm the biosynthesis of lipid mediators by recombinant COX2 treated with N-AS or aspirin, 10 U of human recombinant COX2 (Cayman, 60122) was incubated in the presence of 500 μM aspirin (Sigma-Aldrich, A5376) or N-AS (Sigma-Aldrich, 01912) at 37 °C for 30 min. The enzyme was filtered with a Microcon column (Millipore) to remove unreacted aspirin or N-AS and was then resuspended in 0.1 M Tris-HCl (pH 8.0). Next, 500 μM phenol (Sigma-Aldrich) and 1 μM hematin-porcine (Sigma-Aldrich) were added immediately before incubation with 100 μM AA, EPA or DHA (Cayman) at 37 °C for 2 h, respectively. The mixtures were incubated with 30 U of human 5-LOX (Cayman, 60402) containing 2 mM CaCl2 (Sigma-Aldrich), 1 mM ATP (Amresco) and 5 μM 13-HpODE (Cayman) as activators. Also, to validate the importance of residue S565 for N-AS-acetylation of COX2 and production of SPMs, 10 U of the COX2 S565A mutant was used in the above-described method. In addition, to confirm SPM generation in neurons and microglia, these cells were treated with Aβ and sonicated in neuronal and glial culture medium. […] To evaluate the relationship of N-AS and SPM production in microglia, microglia were isolated from WT, APP/PS1, and APP/PS1 treated with N-AS mice at 9 months of age. The microglia were sonicated and resuspended in microglial culture medium. The supernatants were incubated with 100 μM AA, EPA, and DHA (Cayman) at 37 °C for 2 h. A 50 μl aliquot of the mixture from each cell lysate was added to a 250 μl aliquot of 1 ng ml^−1 of 15S-LXA4-d5 (internal standard, Cayman) methanol solution. After vortexing for 10 min and centrifuging at 15,974×g for 5 min, the supernatant was subjected to the analysis of the lipid mediators using an Agilent 6470 Triple Quad LC-MS/MS system (Agilent) coupled to an Agilent 1290 HPLC system. Chromatographic separation was achieved using a Synergi Polar RP (4 μm, 2.0 mm i.d. × 150 mm, Phenomenex). Analytes were eluted with a mobile phase consisting of water: formic acid (100:0.1 v/v) (phase A) and methanol: formic acid (100:0.1 v/v) (phase B) in gradient elution mode for 23 min a flow rate of 0.2 ml min^−1. The elution gradient was as follows: from 0 to 0.1 min the content of phase A was 37% and the content of phase A was decreased to 10% and maintained for 5.5 min. The content of phase A was increased back to 37% at 6.0 min and maintained for 23 min. Quantification was carried out using MRM in negative ionization mode and collision energy of 10–15 eV. The mass transition from Q1 to Q3 is shown in Supplementary Table 2. In this study, the peak areas for all components were automatically integrated using MassHunter B 06.00.
To confirm the generation and roles of N-AS in neurons, cells from E18 C57BL/6 mice were prepared as previously described. Cortices were dissected and then dissociated followed by incubation in papain (Worthington) at 37 °C for 15 min. Neurons were plated on poly-L-lysine-coated coverslips with neuronal culture medium, serum-free Neurobasal medium (Gibco) containing 2% B27 supplements (Gibco), 1 mM Glutamax supplement (Gibco), and 100 U ml^−1 streptomycin/ 100 U ml^−1 penicillin (Gibco) at 37 °C in a humidified atmosphere of 5% CO2. […] Primary astrocyte cultures were prepared from C57BL/6 mice as described previously. In brief, after removal of the meninges, postnatal day 7 (P7) mouse brain tissues were minced and incubated in a rocking water bath at 37 °C for 30 min in the presence of 0.25% trypsin-EDTA (Sigma-Aldrich). Enzyme-digested dissociated cells were triturated with astrocyte-specific medium (DMEM/F12 containing 10% FBS and 1% penicillin-streptomycin) and centrifuged at 155×g for 8 min. The pellet was resuspended in astrocyte-specific medium and passed through a 40-μm cell strainer. […]

Several values for one entry are separate records, joined by “and”; a condition that tells them apart may be missing. Identical values can stand only once.

Consider `CCCCCCCCCCCCC/C=C/[C@@H](O)[C@@H](N)CO` [Sph, sphingosine], for which, where the note is “Ab + supplement”, the “15R-LxA4 (Fig 3i)” value is 0.02593 and 0.02461 and 0.02134 and 0.02662 and 0.02525 and 0.02398; the “RvD1 (Fig 3i)” value is 0.01101 and 0.01211 and 0.01321 and 0.01156 and 0.01266 and 0.01239; the “RvE1 (Fig 3i)” value was 0.01121 and 0.01127 and 0.01125 (2×) and 0.01124 and 0.01126.
In the case of “Ab: Aβ 1–42 (Invitrogen, 03112) used to induce an AD environment in cells”, where the note is “Ab, no supplement”, the “15R-LxA4 (Fig 3i)” value is 0.02346 and 0.02267 and 0.02051 and 0.02367 and 0.02325 and 0.02209; the “RvD1 (Fig 3i)” value was 0.01315 and 0.01104 and 0.01107 and 0.0121 and 0.01106 and 0.01158; the “RvE1 (Fig 3i)” value is 0.0152 and 0.01424 and 0.01723 and 0.01472 and 0.01573 and 0.01598.
Turning to `CC(=O)SCCNC(=O)CCNC(=O)[C@H](O)C(C)(C)COP(=O)(O)OP(=O)(O)OC[C@H]1O[C@@H](n2cnc3c(N)ncnc32)[C@H](O)[C@@H]1OP(=O)(O)O` [Acetyl-CoA, acetyl-CoA], for the setting “Ab + supplement”, the “15R-LxA4 (Fig 3i)” value is 0.02549 and 0.02793 and 0.0321 and 0.02233 and 0.02865 and 0.02722; the “RvD1 (Fig 3i)” value was 0.01313 and 0.01214 and 0.01403 and 0.01264 and 0.01308 and 0.01333; the “RvE1 (Fig 3i)” value is 0.01432 and 0.01422 and 0.01286 and 0.01427 and 0.01354 and 0.01357.
Turning to `CCCCCCCCCCCCC/C=C/[C@@H](O)[C@H](CO)NC(C)=O` [N-AS, N-((2S,3R,E)-1,3-Dihydroxyoctadec-4-en-2-yl)acetamide], under “Ab + supplement”, the “15R-LxA4 (Fig 3i)” value is 3.35 and 3.4991 and 3.7074 and 3.111 and 3.589 and 3.409; the “RvD1 (Fig 3i)” value is 0.555 and 0.7676 and 0.6961 and 0.6613 and 0.7318 and 0.6787; the “RvE1 (Fig 3i)” value is 3.2 and 3.853 and 3.712 and 3.527 and 3.7827 and 3.619.

B1: Sphk1: purified sphingosine kinase1 enzyme (Cayman, 10348) supplemented to cell lysates (protein, UniProt Q9NYA1 1-384, looked up)
Sphingosine kinase 1: MDPAGGPRGVLPRPCRVLVLLNPRGGKGKALQLFRSHVQPLLAEAEISFTLMLTERRNHARELVRSEELGRWDALVVMSGDGLMHEVVNGLMERPDWETAIQKPLCSLPAGSGNALAASLNHYAGYEQVTNEDLLTNCTLLLCRRLLSPMNLLSLHTASGLRLFSVLSLAWGFIADVDLESEKYRRLGEMRFTLGTFLRLAALRTYRGRLAYLPVGRVGSKTPASPVVVQQGPVDAHLVPLEEPVPSHWTVVPDEDFVLVLALLHSHLGSEMFAAPMGRCAAGVMHLFYVRAGVSRAMLLRLFLAMEKGRHMEYECPYLVYVPVVAFRLEPKDGKGVFAVDGELMVSEAVQGQVHPNYFWMVSGCVEPPPSWKPQQMPPPEEPL
In the case of B1, under “Ab + supplement”, the “15R-LxA4 (Fig 3i)” value is 3.266 and 3.3679 and 3.485 and 3.078 and 3.454 and 3.282; the “RvD1 (Fig 3i)” value was 0.5366 and 0.8616 and 0.7359 and 0.6991 and 0.7987 and 0.7175; the “RvE1 (Fig 3i)” value is 3.815 and 3.7466 and 3.98 and 3.781 and 3.863 and 3.88.

Source of the values: publication PMC7217877, “N-AS-triggered SPMs are direct regulators of microglia in a model of Alzheimer’s disease” (Nature Communications, 2020).
